Experimental data taken from US20140057877A1, “Therapeutic polyamine compositions and their synthesis” (priority 2002, published 2014).
Several values for one entry are separate records, joined by “and”; a condition that tells them apart may be missing. Equal entries are not always repeated. Where two headings read alike, the source gives them in different places.

Tests used:
M. Luteus (ATCC 499732) = assay: Bacterial survival, toxin diazoxide and antidotes
Experimental: (§2) Bacteria were inoculated and cultured in nutrient agar for eighteen hours, using a shaking incubator at 140 r.p.m and 35° C. Medium contained 10 mM HEPES buffer at pH 7. Cells were centrifuged twice in Sorval RC-5 centrifuge 12,000 r.pm.×15 minutes at 4° C. and washed twice in 10 uM HEPES buffer. The resuspended cells were counted using a Hemocrit and diluted to a level of 5×10^1 cells per ml in 10 μM HEPES. The cells, the following toxins; methyl viologen (paraquat), methyl viologen (MPP^+), rotenone, daizoxide, streptozotocin and alloxan, and antidotes were added, reaching final volumes of 1 ml in Eppendorf tubes and placed on a rotator at room temperature. 10 μM diethylenetriaminepentaacetic acid was added to the samples to terminate the reactions at the specified times of either twenty or sixty minutes. 300 μL of cells were plated on Petri plates containing nutrient agar and incubated at 35° C. overnight. Colonies were counted after 20 hours. Percentage survival as compared with culture controls is calculated from the means of triplicates in each experimental group.

[1] = pKa by potentiometric titration; assay type: physicochemical; details: aqueous solution, ionic strength 0.10, 25° C.
Experimental: PKa's were determined by standard potentiometric titration methods in aqueous solution with an ionic strength of 0.10 at 25° C. Values are reported as log K values of the equilibrium constant.

[2] = test system: E. coli (GM 7359) alkA tag E. coli mutant; details: 60 minutes
Experimental: as §2

S. aureus (ATCC 29213) [3] = assay: Bacterial survival, toxin diazoxide and antidotes; assay type: cell-based; details: 60 minutes
Experimental: (§1) Medium contained 10 mM HEPES buffer at pH 7. […] Colonies were counted after 20 hours.

E. coli (ATCC 35150) = assay type: cell-based
Experimental: as §1

S. aureus (ATCC 29213) [4] = assay: Bacterial survival, toxin MPP^+ and antidotes; details: 60 minutes
Experimental: as §2

[5] = test system: E. coli (GM 7359) alkA tag E. coli mutant; details: 60 minutes; remark: listed apart in the source
Experimental: as §2

[6] = test system: E. coli (GM 7359) alkA tag E. coli mutant; assay: Bacterial survival, toxin streptozotocin and antidotes; details: 60 minutes
Experimental: as §2

[7] = 0.2 mM Diazoxide + 200 uM antidote, T60
[8] = substance alone 200 uM, T20 (20 minutes)
[9] = substance alone 200 uM, T60 (60 minutes)
[10] = 0.2 mM Diazoxide + 1 uM antidote, T20
[11] = 0.2 mM Diazoxide + 1 uM antidote, T60
[12] = 0.2 mM Diazoxide + 2.5 uM antidote, T20
[13] = 0.2 mM Diazoxide + 2.5 uM antidote, T60
[14] = 100 uM Streptozotocin + 5 uM antidote
[15] = 0.15 mM Diazoxide + 5 uM antidote
[16] = 0.2 mM Diazoxide + 5 uM antidote, T60
[17] = 0.2 mM Diazoxide + 10 uM antidote, T60

NCCSCCCSCCN [2,3,2-sulfur, 2-[3-(2-aminoethylthio)propylthio]ethylamine]
Mean % Survival (M. Luteus (ATCC 499732); 0.2 mM Diazoxide + 12.5 uM antidote, T60): 32%
Mean % Survival (M. Luteus (ATCC 499732); 0.2 mM Diazoxide + 100 uM antidote, T60): 67%
Mean % Survival (M. Luteus (ATCC 499732); substance alone 100 uM, T20 (20 minutes)): 100%
Mean % Survival (M. Luteus (ATCC 499732); substance alone 100 uM, T60 (60 minutes)): 100%

CNCCN(C)CCCN(C)CCNC [2,3,2-tetramethyl, N,N′,N″,N′″-tetramethyl 2,3,2-tetramine]
pKa(1) [1]: 10.2
pKa(2) [1]: 9.4
pKa(3) [1]: 6.1
pKa(4) [1]: 2.9

O=C1NC(=O)C(=O)C(=O)N1 [Alloxan, reference compound]
Mean % Survival ([2]; substance alone 2 mM): 20%

CC1=NS(=O)(=O)c2cc(Cl)ccc2N1 [Diazoxide, reference compound]
Mean % Survival (S. aureus (ATCC 29213) [3]; substance alone 0.15 mM): 25%
Mean % Survival (M. Luteus (ATCC 499732); substance alone 0.2 mM, T20 (20 minutes)): 22%
Mean % Survival (M. Luteus (ATCC 499732); substance alone 0.2 mM, T60 (60 minutes)): 1%

N[C@@H](Cc1c[nH]cn1)C(=O)O [Histidine, reference compound]
Mean % Survival (E. coli (ATCC 35150)): 30%
Mean % Survival (E. coli (ATCC 35150); 0.5 mM Paraquat + 1.0 mM antidote, 60 minutes): 37%
Mean % Survival (E. coli (ATCC 35150); substance alone 0.5 mM, 60 minutes): 100%
Mean % Survival (E. coli (ATCC 35150); substance alone 1 mM, 60 minutes): 100%
Mean % Survival (S. aureus (ATCC 29213) [3]; 0.15 mM Diazoxide + 500 uM antidote): 58%
Mean % Survival (S. aureus (ATCC 29213) [3]; substance alone 0.5 mM): 100%
Mean % Survival (S. aureus (ATCC 29213) [4]; 0.15 mM MPP^+ + 0.5 mM antidote): 64%
Mean % Survival (S. aureus (ATCC 29213) [4]; substance alone 0.5 mM): 90%
Mean % Survival (M. Luteus (ATCC 499732); [7]): 54%
Mean % Survival (M. Luteus (ATCC 499732); [8]): 100%
Mean % Survival (M. Luteus (ATCC 499732); [9]): 100%

C[n+]1ccc(-c2ccccc2)cc1 [MPP^+, reference compound]
Mean % Survival (S. aureus (ATCC 29213) [4]; substance alone 0.1 mM): 31%
Mean % Survival (S. aureus (ATCC 29213) [4]; substance alone 0.15 mM): 15%
Mean % Survival (S. aureus (ATCC 29213) [4]; substance alone 0.2 mM): 6%
Mean % Survival (S. aureus (ATCC 29213) [4]; substance alone 0.25 mM): 3%

C=C(C)[C@H]1Cc2c(ccc3c2O[C@@H]2COc4cc(OC)c(OC)cc4[C@@H]2C3=O)O1 [Rotenone, reference compound]
Mean % Survival ([5]; substance alone 100 uM): 60%

NCCCCNCCCN [Spermidine, reference compound]
Mean % Survival (M. Luteus (ATCC 499732); [10]): 100%
Mean % Survival (M. Luteus (ATCC 499732); [11]): 96%
Mean % Survival (M. Luteus (ATCC 499732); [12]): 100%
Mean % Survival (M. Luteus (ATCC 499732); [13]): 100%
Mean % Survival (M. Luteus (ATCC 499732); 0.2 mM Diazoxide + 200 uM antidote, T20): 100%
Mean % Survival (M. Luteus (ATCC 499732); [8]): 100%
Mean % Survival (M. Luteus (ATCC 499732); [9]): 100%
Mean % Survival [6, 14]: 87%
Mean % Survival ([6]; substance alone 5 uM): 97%

NCCCNCCCCNCCCN [Spermine]
Mean % Survival (E. coli (ATCC 35150)): 100% and 96% and 60%
Mean % Survival (S. aureus (ATCC 29213) [3]; [15]): 71%
Mean % Survival (S. aureus (ATCC 29213) [3]; substance alone 5 uM): 99%

CN(N=O)C(=O)N[C@H]1C(O)O[C@H](CO)[C@@H](O)[C@@H]1O (some centres unmarked) [Streptozotocin, N-(methylnitrosocarbamoyl)-Dglucosamine, reference compound]
Mean % Survival ([6]; substance alone 100 uM): 57%

CN1CCCN(C)CCN(C)CCCN(C)CC1 [cyclam-methylated, 1,4,8,11-tetraaza-1,4,8,11-tetramethylcyclotetradecane]
pKa ([1]; read-out: pKa(1)): 9.7
pKa ([1]; read-out: pKa(2)): 9.3
pKa ([1]; read-out: pKa(3)): 3.1
pKa ([1]; read-out: pKa(4)): 2.6

(2-piperidylethyl)-{3-[(2-piperidylethyl)amino]propyl}amine [2,3,2-piperidine]
pKa(1) [1]: 9.9
pKa(2) [1]: 9.3
pKa(3) [1]: 6.4
pKa(4) [1]: 3.6
Mean % Survival (S. aureus (ATCC 29213) [3]; 0.15 mM Diazoxide + 2.5 uM antidote): 100%
Mean % Survival (S. aureus (ATCC 29213) [3]; [15]): 91%
Mean % Survival (S. aureus (ATCC 29213) [3]; 0.15 mM Diazoxide + 10 uM antidote): 92%
Mean % Survival (S. aureus (ATCC 29213) [3]; substance alone 10 uM): 100%
Mean % Survival ([5]; 100 uM Rotenone + 2.5 uM antidote): 100%
Mean % Survival ([5]; 100 uM Rotenone + 5 uM antidote): 100%
Mean % Survival ([5]; 100 uM Rotenone + 20 uM antidote): 100%
Mean % Survival ([5]; 100 uM Rotenone + 50 uM antidote): 100%
Mean % Survival ([5]; substance alone 50 uM): 100%
Mean % Survival (S. aureus (ATCC 29213) [4]; 0.25 mM MPP^+ + 1uM antidote): 54%
Mean % Survival (S. aureus (ATCC 29213) [4]; 0.25 mM MPP^+ + 2uM antidote): 54%
Mean % Survival (S. aureus (ATCC 29213) [4]; 0.25 mM MPP^+ + 5uM antidote): 69%
Mean % Survival (S. aureus (ATCC 29213) [4]; 0.25 mM MPP^+ + 7uM antidote): 100%
Mean % Survival (S. aureus (ATCC 29213) [4]; substance alone 7.5 uM): 100%
Mean % Survival (M. Luteus (ATCC 499732); [10]): 81%
Mean % Survival (M. Luteus (ATCC 499732); [12]): 81%
Mean % Survival (M. Luteus (ATCC 499732); [13]): 41%
Mean % Survival (M. Luteus (ATCC 499732); 0.2 mM Diazoxide + 5 uM antidote, T20): 100%
Mean % Survival (M. Luteus (ATCC 499732); [16]): 100%
Mean % Survival (M. Luteus (ATCC 499732); 0.2 mM Diazoxide + 10 uM antidote, T20): 100%
Mean % Survival (M. Luteus (ATCC 499732); [17]): 100%
Mean % Survival (M. Luteus (ATCC 499732); 0.2 mM Diazoxide + 20 uM antidote, T20): 100%
Mean % Survival (M. Luteus (ATCC 499732); 0.2 mM Diazoxide + 20 uM antidote, T60): 100%
Mean % Survival (M. Luteus (ATCC 499732); 0.2 mM Diazoxide + 50 uM antidote, T20): 100%
Mean % Survival (M. Luteus (ATCC 499732); substance alone 50 uM, T20 (20 minutes)): 100%
Mean % Survival (M. Luteus (ATCC 499732); substance alone 50 uM, T60 (60 minutes)): 100%
Mean % Survival ([6]; 100 uM Streptozotocin + 2.5 uM antidote): 70%
Mean % Survival [6, 14]: 100%
Mean % Survival ([6]; 100 uM Streptozotocin + 20 uM antidote): 100%
Mean % Survival ([6]; substance alone 20 uM): 100%

Vanadyl (1,4,8,11-tetraaza-1,4,8,11-tetrabicyclo[3.3.1]non-3-ylcyclotetradecane)(Cl)2 [Vanadium Cyclam Adamantane]
Mean % Survival (M. Luteus (ATCC 499732); [11]): 100%
Mean % Survival (M. Luteus (ATCC 499732); [16]): 100%
Mean % Survival (M. Luteus (ATCC 499732); [17]): 100%
Mean % Survival (M. Luteus (ATCC 499732); 0.2 mM Diazoxide + 50 uM antidote, T60): 100%
Mean % Survival (M. Luteus (ATCC 499732); [7]): 100%
Mean % Survival (M. Luteus (ATCC 499732); [8]): 100%
Mean % Survival (M. Luteus (ATCC 499732); [9]): 100%

[2-(bicyclo[3.3.1]non-3-ylamino)ethyl](3-{2-(bicyclo[3.3.1]non-3-ylamino)ethyl]amino}propyl)amine [2,3,2-tetramine adamantane]
Mean % Survival ([2]; 2 mM Alloxan + 1 uM antidote): 51%
Mean % Survival ([2]; 2 mM Alloxan + 100 uM antidote): 69%
Mean % Survival ([2]; substance alone 100 uM): 100%
